In patent US10508092B2, “Synthesis of novel analogs of diptoindonesin G, compounds formed thereby, and pharmaceutical compositions containing them” (Wisconsin Alumni Research Foundation, priority 2016, dated 2019) one finds peak plasma concentration, ERβ stability and melting point data, which are given here for two compounds.

The conditions of data set [1]: patients, high dose administration of fulvestrant (500 mg); cited from earlier work.
The subject of data set [2] is estrogen receptor β (ERβ). Nature of the data set: Western blot of FLAG-ERβ levels in Hs578T-ERβLuc Dox-inducible cells. Format: cell-based, human. The conditions noted are these: Hs578T-ERβLuc Dox-inducible line, 10 μM, 5 days, Western blot (anti-FLAG). Here is the method:
FIGS. 2A, 2B, and 2C together depict the biological activity of the subject compounds on estrogen receptor β (ERβ) levels in human breast cancer cells.
The biological activity of these four analogs were then compared with the parent compound Dip G following our previous protocol (Zhao et al., supra). See FIGS. 1A, 1B, 1C, 2A, 2B, and 2C. Cells were treated with each compound at 10 μM concentration in order to evaluate how well each modified the stability of ERα and ERβ.
MCF7 cells were treated with Dip G and analogs for 24 hours before harvesting. Hs578T-tet-on-ERβ cells (ATCC HTB-126; American Type Culture Collection, Manassas, Va.) were treated with doxycycline for 24 hours to induce ERβ expression. Then the cells were treated with compounds for 5 days before harvesting. 15 μg of total cell lysates were resolved on SDS-PAGE and Western blot analyses were performed as previously described using ERα antibody (HC-20, Santa Cruz Biotechnology, Inc., Dallas, Tex.) and anti-FLAG antibody (F7425, Sigma-Aldrich Co., LLC, St. Louis, Mo.) for ERβ.^3

“And” between values parts separate entries of the source, which are not always exact repeats. Equal values may be shown once.

Regarding `C[C@]12CC[C@@H]3c4ccc(O)cc4C[C@@H](CCCCCCCCC[S+]([O-])CCCC(F)(F)C(F)(F)F)[C@H]3[C@@H]1CC[C@@H]2O` (stereo partly drawn) [fulvestrant], the peak plasma concentration in data set [1] is ~20 ng/ml and ~30 nM.

For `O=C1c2c(O)cc(O)cc2-c2c(-c3ccccc3)oc3cc(O)cc1c23` [Compound 14], the melting point (commonly the temperature, or range, at which the solid turns liquid) is greater than 260 °C. Also, the ERβ stability entry in data set [2] is “moderately stabilized”.
